Consider six molecules from patent publication US20040028714A1, “Composition having insect repellent characteristics” (priority 2000, published 2004).

For assay [1], the system named is German cockroaches (Blatella Germanica). Put plainly: Cockroach repellency screening on partially treated formica surface (Example 2). It counts as in vivo. Conditions: 20 mg/m^2 on formica; for Number of Cockroaches present, Treated Section / Number of Cockroaches present, Untreated Section / Number of Cockroaches, Dead: single replicates (n = 20); for Number of Cockroaches present, Treated Section, Total / Number of Cockroaches present, Untreated Section, Total / Number of Cockroaches, Dead, Total: total of 4 replicates (80); for Percentage Dead / Percentage Present, Treated Section / Percentage Present, Untreated Section / Percentage Present, Treated Section, Average / Percentage Present, Untreated Section, Average: cockroaches; for Percentage Present, Treated Section, Average / Percentage Present, Untreated Section, Average: average of days 1, 2 and 3. The procedure: The effectiveness of compounds of formula I as an insect repellent was determined using German cockroaches exposed to a formica surface partially treated/partially untreated with a test compound of formula I. The study was conducted in an air conditioned laboratory at a temperature of 22°±2° C. under a normal day/night cycle, using German cockroaches (Blatella Germanica) of mixed sex and age. The study was conducted over a 3 day period and the repellent effectiveness assessed 1, 2 and 3 days after cockroach introduction. A rectangle of formica 40 cm×30 cm was treated at 20 mg/m^2 with a test compound of formula I. This was achieved by soaking a paper wipe (Rag on a Roll ca 20 cm×20 cm) in a solution of the test compound in ethanol, squeezing out the excess liquid and wiping over the surface to give the required coverage. This was checked by weighing the cloth after application. The surface was allowed to dry. A similar rectangle was wiped with ethanol alone (untreated surface). The treated formica rectangle was placed on the bench and a plastic container was placed on the rectangle. This had been treated with fluon to prevent cockroach escape. Two sheets of formica (10 cm×10 cm) were placed on the formica, one on the treated surface and one on the untreated surface. This acted as a cockroach harbourage. The formica sheet to be used in the treated section was treated at the same rate as the treated formica. The formica was placed on two 1 cm high bottle tops to allow cockroaches access under the formica. 20 German cockroaches were added (5 adults and 15 nymphs) to the centre of the formica. No food and water was supplied for these cockroaches. At 1, 2 and 3 days after cockroach introduction the number of cockroaches under each harbourage was counted. After each count the harbourage position was change to avoid the possibility of […] were replaced and new cockroaches were added to replace any dead cockroaches. The above was repeated 3 times to provide a total of 4 replicates.

Assay [2] has as its system Black Ants (Ochetellus sp). In words: Ant repellency on half-treated formica (Example 4). The assay is classed as in vivo. Conditions: ants, 20 mg/m^2 on formica. The protocol: The effectiveness of compound 2 (example 1) as an insect repellent was determined using ants exposed to a formica surface partially treated/partially untreated with compound 2, and was directly compared to the repellency of the well known insect repellents Farnesol and Dihydrofarnesal.
The study was conducted in an air conditioned laboratory at a temperature of 22°±2° C. under a normal day/night cycle, using Black Ants (Ochetellus sp) of mixed sex and age. The study ws conducted over a 3 day period and the repellent effectiveness assessed 1, 2 and 3 days after ant introduction.
One half of a rectangle of formica 40 cm×30 cm was treated at 20 mg/m^2 with the test compounds. This was achieved by soaking a paper wipe (Rag On A Roll approximately 20 cm×20 cm) in a solution of the test compound in ethanol, squeezing out the excess liquid and wiping over the surface to give the required coverage. This was checked by weighing the cloth after application. The surface was allowed to dry. The other half was wiped with ethanol alone (untreated surface).
The treated formica rectangle was placed on the bench and a glass ring (diameter 20 cm) was placed on the rectangle. This had been treated with fluon to prevent ant escape.
A small plastic container 2 cm in diameter was placed on the formica, one on the treated surface and one on the untreated surface. The plastic container placed on the treated surface had repellent applied in the same way as the treated formica. The plastic container on the untreated surface was wiped with ethanol.
24 hours after treatment (1 day) 20 ants were added to the centre of the formica. No food and water was supplied for these ants. 2 hours after this the number of ants on the treated and untreated surfaces was counted.
The above was repeated 3 times to provide a total of 4 replicates.
The above was repeated at 2 days and 3 days. New ants were used at each time period.

[3] abbreviates: 1 day after cockroach introduction.
The mark [4] stands for this setting: 2 days after cockroach introduction.
[5] abbreviates: 3 days after cockroach introduction.

Several values for one entry are separate records, joined by “and”; a condition that tells them apart may be missing. Equal entries are not always repeated.

As to `CNC(=O)C1CC(C)CCC1C(C)C` (centres unmarked) [Compound 1, N-methyl-p-menthane-3-carboxamide], in assay [1] (setting [3]), the “Number of Cockroaches present, Treated Section” value was 5 and 3 and 7 and 0; the “Number of Cockroaches present, Untreated Section” value was 15 and 17 and 13 and 20; the “Number of Cockroaches, Dead” value is reported as 0; the “Number of Cockroaches present, Treated Section, Total” value turned out to be 15. In addition, in assay [1] (setting [3]), the “Number of Cockroaches present, Untreated Section, Total” value (shortened to “Number … Untreated Section, Total”) amounted to 65 and the “Number of Cockroaches, Dead, Total” value is listed as 0. Further, in assay [1] (setting [4]), the “Number of Cockroaches present, Treated Section” value is 5 (2×) and 3 and 0; the “Number of Cockroaches present, Untreated Section” value is 15 and 17 and 14 and 20; the “Number of Cockroaches, Dead” value is 0 (3×) and 1; the “Number of Cockroaches present, Treated Section, Total” value was 13. Besides, in assay [1] (setting [4]), the “Number … Untreated Section, Total” value came out at 66 and the “Number of Cockroaches, Dead, Total” value was found to be 1. In assay [1] (setting [5]), the “Number of Cockroaches present, Treated Section” value was 4 (2×) and 3 and 0; the “Number of Cockroaches present, Untreated Section” value was 16 (3×) and 20; the “Number of Cockroaches, Dead” value is 0 (3×) and 1; the “Number of Cockroaches present, Treated Section, Total” value stood at 11. Also, in assay [1] (setting [5]), the “Number … Untreated Section, Total” value is listed as 68 and the “Number of Cockroaches, Dead, Total” value worked out at 1. In addition, in assay [1] (1 day after treatment), the “Percentage Dead” value worked out at 0%; the “Percentage Present, Treated Section” value was 18.7%; the “Percentage Present, Untreated Section” value is 81.3%. Besides, in assay [1] (2 days after treatment), the “Percentage Dead” value was 1.2%; the “Percentage Present, Treated Section” value was 16.3%; the “Percentage Present, Untreated Section” value is listed as 82.5%. For the same molecule, in assay [1] (3 days after treatment), the “Percentage Dead” value is given as 1.2%; the “Percentage Present, Treated Section” value worked out at 13.8%; the “Percentage Present, Untreated Section” value was found to be 85.0%. Moreover, in assay [1], the “Percentage Present, Treated Section, Average” value worked out at 16.3% and the “Percentage Present, Untreated Section, Average” value amounted to 82.9%.
Turning to `CCCNC(=O)C1CC(C)CCC1C(C)C` (centres unmarked) [Compound 3, N-propyl-p-menthane-3-carboxamide], in assay [1] (1 day after treatment), the “Percentage Dead” value turned out to be 0%; the “Percentage Present, Treated Section” value was 16.3%; the “Percentage Present, Untreated Section” value stood at 83.7%. Besides, in assay [1] (2 days after treatment), the “Percentage Dead” value was determined as 1.2%; the “Percentage Present, Treated Section” value turned out to be 6.3%; the “Percentage Present, Untreated Section” value worked out at 92.5%. In addition, in assay [1] (3 days after treatment), the “Percentage Dead” value was found to be 0%; the “Percentage Present, Treated Section” value was 6.3%; the “Percentage Present, Untreated Section” value amounted to 93.7%. In assay [1], the “Percentage Present, Treated Section, Average” value amounted to 9.6% and the “Percentage Present, Untreated Section, Average” value turned out to be 90.0%.
As to `CC1CCC(C(C)C)C(C(=O)Nc2ccccc2)C1` (centres unmarked) [Compound 4, N-phenyl-p-menthane-3-carboxamide], in assay [1] (1 day after treatment), the “Percentage Dead” value came out at 0%; the “Percentage Present, Treated Section” value turned out to be 46.3%; the “Percentage Present, Untreated Section” value was determined as 53.7%. In assay [1] (2 days after treatment), the “Percentage Dead” value amounted to 0%; the “Percentage Present, Treated Section” value is 35.0%; the “Percentage Present, Untreated Section” value worked out at 65.0%. In assay [1] (3 days after treatment), the “Percentage Dead” value was found to be 1.2%; the “Percentage Present, Treated Section” value turned out to be 12.5%; the “Percentage Present, Untreated Section” value worked out at 86.3%. In assay [1], the “Percentage Present, Treated Section, Average” value worked out at 31.3% and the “Percentage Present, Untreated Section, Average” value amounted to 68.3%.
Regarding `CC1CCC(C(C)C)C(C(=O)N(C)C)C1` (centres unmarked) [Compound 5, N,N-dimethyl-p-menthane-3-carboxamide], in assay [1] (1 day after treatment), the “Percentage Dead” value was found to be 0%; the “Percentage Present, Treated Section” value stood at 15.0%; the “Percentage Present, Untreated Section” value stood at 85.0%. Besides, in assay [1] (2 days after treatment), the “Percentage Dead” value worked out at 1.2%; the “Percentage Present, Treated Section” value is 10.0%; the “Percentage Present, Untreated Section” value came to 88.8%. In assay [1] (3 days after treatment), the “Percentage Dead” value is 1.2%; the “Percentage Present, Treated Section” value is 15.0%; the “Percentage Present, Untreated Section” value came to 83.8%. For the same molecule, in assay [1], the “Percentage Present, Treated Section, Average” value was 13.3% and the “Percentage Present, Untreated Section, Average” value is reported as 85.9%.
Take `CCN(CC)C(=O)C1CC(C)CCC1C(C)C` (centres unmarked) [Compound 6, N,N-diethyl-p-menthane-3-carboxamide]: in assay [1] (1 day after treatment), the “Percentage Dead” value is 0%; the “Percentage Present, Treated Section” value is reported as 11.3%; the “Percentage Present, Untreated Section” value is recorded as 88.7%. In assay [1] (2 days after treatment), the “Percentage Dead” value is 0%; the “Percentage Present, Treated Section” value is recorded as 13.8%; the “Percentage Present, Untreated Section” value came out at 86.2%. For the same molecule, in assay [1] (3 days after treatment), the “Percentage Dead” value is reported as 2.5%; the “Percentage Present, Treated Section” value was 6.3%; the “Percentage Present, Untreated Section” value came out at 91.2%. Also, in assay [1], the “Percentage Present, Treated Section, Average” value is 10.5% and the “Percentage Present, Untreated Section, Average” value is on record as 88.7%.
With `CC(C)=CCC/C(C)=C/CCC(C)CC=O` (centres unmarked) [Dihydrofarnesal, reference compound], in assay [2] (1 day after treatment), the “Percentage Dead” value came to 0%; the “Percentage Present, Treated Section” value turned out to be 20.0%; the “Percentage Present, Untreated Section” value was 80.0%. Besides, in assay [2] (2 days after treatment), the “Percentage Dead” value came out at 0%; the “Percentage Present, Treated Section” value was found to be 21.2%; the “Percentage Present, Untreated Section” value is given as 78.8%. Besides, in assay [2] (3 days after treatment), the “Percentage Dead” value is on record as 0%; the “Percentage Present, Treated Section” value was 12.5%; the “Percentage Present, Untreated Section” value was 87.5%. For the same molecule, in assay [2] (average of days 1, 2 and 3), the “Percentage Dead, Average” value amounted to 0%; the “Percentage Present, Treated Section, Average” value is reported as 17.9%; the “Percentage Present, Untreated Section, Average” value is recorded as 82.1%. Moreover, the “Percentage Present, Treated Section, Average” value in assay [2] (average of days 1, 2 and 3, listed as Dihydrofarnesol) was “approximately 17%”.
